# Measurements published in article PMC12392461, “Beyond Estrogenicity: A Comparative Assessment of Bisphenol A and Its Alternatives in In Vitro Assays Questions Safety of Replacements” (Environmental Science & Technology, 2025).
# Read-outs that look alike come from different tables or passages of the source.
# Legend:
# [1] = target: T1, Estrogen Receptor ERα (Homo sapiens, UniProt P03372); assay: aCYP oxidation followed by ERα-UAS-bla GripTite assay (TK-Ratio of effect); format: cell-based; settings: for EC10, before oxidation / EC10, after oxidation: ERα, in M; for EC10, after oxidation: after abiotic CYP catalyst; for TKERα: TKERα-Ratio
# T1 sequence (P03372 311-547 limits assumed): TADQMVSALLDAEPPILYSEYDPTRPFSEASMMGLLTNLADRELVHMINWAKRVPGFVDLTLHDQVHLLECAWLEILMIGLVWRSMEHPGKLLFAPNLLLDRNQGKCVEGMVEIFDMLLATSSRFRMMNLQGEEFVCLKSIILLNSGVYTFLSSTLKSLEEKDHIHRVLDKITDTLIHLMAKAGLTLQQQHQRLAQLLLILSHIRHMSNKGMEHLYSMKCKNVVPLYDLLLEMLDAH
# Experimental: Cell culture conditions and bioassay protocols including response detection are provided in Text S2.1–2.4 and Table S3. − Cell viability was determined from cell confluency using an IncuCyte S3 Live-Cell Analysis System (Sartorius AG, Essen, Germany) before and after exposure, except for SH-SY5Y cells (live–dead staining with Nuclear Green LcS1 and propidium iodide, Abcam, UK). For metabolic activation experiments, cell viability was assessed using the ToxBLAzer DualScreen Kit (Thermo Fisher Scientific) to capture the remaining toxicity in ERα-UAS-bla GripTite after treatment with the aCYP catalyst (details in Text S2.4). […]
# The TK-Ratio method was used to evaluate the impact of abiotic CYP oxidation on the potency of tested compounds. […]
# For experiments with the preceding aCYP activation, ERα cell viability was additionally calculated from the readout of the ToxBLAzer reagent. The ToxBLAzer assay was conducted following the manufacturer's instructions (Thermo Fisher, Waltham, MA, U.S.).13 Fluorescence intensity was recorded at the start of the assay ( Fwavelength(0h)) and after a 2-hour incubation at […]
# Cell viability was assessed based on the red fluorescence signal at 665 nm, applying eq. S11 for normalization.
# Cell viability = F665nm(2h, sample)-F665nm(0h, average cell-free) (S11) F665nm(2h, average unexposed)-F665nm(0h, average cell-free) […]
# the specific endpoint to avoid artifacts from cytotoxicity burst. 15
# S2.5: Concentration-response curves (CRCs)
# To avoid bias from cytotoxicity burst at higher concentrations, all concentrations exceeding the IC10 for cytotoxicity were excluded in the CRC modeling of effects but otherwise cytotoxicity and effects were fitted with the same model equations (response stands for cytotoxicity or effect). For ERα, AhR, ARE and PPARγ preferably a linear model was fitted to the linear portion of CRC up to maximum 30% effect (eq. S12),16 but in some cases it was necessary to choose a sigmoidal log-concentration-response model, specifically a log-logistic model (eq. S13), to derive effect concentrations and cytotoxicity. For mitochondrial toxicity and neurotoxicity, the […]
# are not reporter gene assays. Common practice when using log-logistic models, e.g., the model implemented in tcpl package in R,17, 18 is that the minima and maxima are also fitted and only median effect concentrations AC50 are derived. […]
# concentrations (EC10) for both linear and log-sigmoidal CRCs to allow absolute comparisons at the same effect level and for TR and SR -analysis. This was done using the AutomatedBioassayScreening19 published by Braun et al.,20 which also included an algorithm to choose the best model between eq. S12 and eq. S13.
# Response (%) = slope × C (S12) […]
# logEC =logEC − 1 ∙log (max−min − 100%) (S14)
# [2] = target: T1, Estrogen Receptor ERα; assay: cell-based; settings: for EC10, ERα (M): 10% of maximum effect of E2; for REPBPA,ERα (relative effect potency in relation to BPA): EC10,BPA/EC10,BPx; for SR-ScoreERα: SR-Score, sigma k=1, x=5; for Specificity ratio (SRbaseline) SRERα: against baseline cytotoxicity; for Specificity ratio (SRcytotoxicity) SRERα: against experimental cytotoxicity; for ERα activation: at noncytotoxic concentrations; for EC10, ERα: effect; for log(1/EC10) ERα: input of the ToxPi score, values up to 1.00; for Relative effect potency REPERα: relative to BPA; for Efficacy % / EC10 / REPBPA: This Study; for EC10: ERα; for REPBPA: relative estrogenic potency vs BPA
# Method in brief: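 ERα-UAS-bla GripTite and PPARγ-UAS-bla β-lactamase reporter cells were seeded and held 24 h at 37 °C, 5% CO₂ before dosing. EC10 values used only concentrations below the IC10 from IncuCyte confluency. Emax% is the log-logistic curve maximum relative to the reference chemical's maximum.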
# [3] = Abiotic CYP (aCYP) oxidation, remaining parent compound (Cparent-Ratio); settings: for Cparent-Ratio Rep.1 %: Table S9, replicate 1; for Cparent-Ratio Rep.2 %: Table S9, replicate 2
# [4] = ERα bioassay, dosing range all, in M
# [5] = ERα bioassay, dosing range all, linear model, in M
# [6] = ERα bioassay, dosing range all, log-logistic model
# [7] = read-out: Emax%ERα, maximum efficacy relative to E2
# [8] = Bioassay ERα, dosing range all, linear model fit
# [9] = Bioassay ERα, dosing range all, log-logistic model fit
# [10] = Bioassay ERα, dosing range high, in M
# [11] = Bioassay ERα, dosing range high, linear model fit, in M
# [12] = Bioassay ERα, dosing range high, log-logistic model fit
# [13] = Table S9, loss of parent after aCYP oxidation
# [14] = Table S9, mean of two replicate experiments
# [15] = Table S9, replicate 1, as fraction
# [16] = Table S9, replicate 2, as fraction
# [17] = Table S11, measured simultaneously with bioassay
SMILES,"EC10, before oxidation ([1]; Table S10)","EC10, ERα (M) [2]",ERα activation [2],"EC10, ERα [2]",log(1/EC10) ERα [2],"Emax [2, 7]","EC10, linear [2, 8]","logEC10 [2, 9]","% Loss [3, 13]","Cparent-Ratio Mean [3, 14]",Cparent-Ratio Rep.1 % [3],"Cparent-Ratio Rep.1 [3, 15]",Cparent-Ratio Rep.2 % [3],"Cparent-Ratio Rep.2 [3, 16]",also measured
"O=S(=O)(c1ccc(O)cc1)c1ccccc1O [2,4-BPS, 2,4'-Dihydroxydiphenyl sulfone]",3.59E-05,1.98 × 10^–5 M,did not activate ERα at noncytotoxic concentrations,19.8 µM,0.60,19%,–,–,–,–,–,–,–,–,"times less potent than BPS (ERα) [2]: 10; REPBPA,ERα (relative effect potency in relation to BPA) [2]: 0.019; EC10, linear transformed [2, 4]: 3.59E-05; EC10, linear [2, 5]: 5.15E-05; logEC10 [2, 6]: -4.70; SR-ScoreERα [2]: 1.00; Specificity ratio (SRbaseline) SRERα [2]: 27.68; Specificity ratio (SRcytotoxicity) SRERα [2]: 21.81; Relative effect potency REPERα [2]: 0.0187"
"CC(C)(c1ccc(OCC2CO2)cc1)c1ccc(OCC2CO2)cc1 (centres unmarked) [BADGE, Bisphenol A diglycidyl ether]",–,–,did not activate ERα at noncytotoxic concentrations,–,–,–,no effect,no effect,–,–,–,–,–,–,–
"CCC(C)(c1ccc(O)cc1)c1ccc(O)cc1 [BPB, 4,4'-(Butane-2,2-diyl)diphenol]",1.07E-07,1.35 × 10^–7 M,–,0.135 µM,0.88,24%,–,–,–,–,–,–,–,–,"EC10, after oxidation ([1]; Table S10): 3.59E-07; TKERα ([1]; Table S10): 0.2982; EC10, linear transformed [2, 10]: 5.57E-08; EC10, linear [2, 11]: 8.29E-08; logEC10 [2, 12]: -7.27; EC10, linear transformed ([2]; Bioassay ERα, dosing range low, in M): 1.07E-07; EC10, linear ([2]; Bioassay ERα, dosing range low, linear model fit, in M): 1.35E-07; logEC10 ([2]; Bioassay ERα, dosing range low, log-logistic model fit): -6.97; REPBPA,ERα (relative effect potency in relation to BPA) [2]: 3; SR-ScoreERα [2]: 1.00; Efficacy % [2]: 23.67%; EC10 ([2]; in M): 1.35E-07; REPBPA [2]: 2.74E+00; Specificity ratio (SRbaseline) SRERα [2]: 66.42; Specificity ratio (SRcytotoxicity) SRERα [2]: 154.61; Relative effect potency REPERα [2]: 2.74"
"Oc1ccc(Cc2ccc(O)cc2)cc1 [BPF, Bis(4-hydroxyphenyl)methane]",9.67E-07,9.95 × 10^–7 M,–,0.995 µM,0.77,50 to 60%,–,-6.00,–,–,–,–,–,–,"EC10, after oxidation ([1]; Table S10): 1.00E-06; TKERα ([1]; Table S10): 0.964; EC10, after oxidation ([1]; Table S11): 1.36E-06; EC10, before oxidation ([1]; Table S11): 1.26E-06; TKERα ([1]; Table S11): 0.93; EC10, linear transformed ([2]; Bioassay ERα, dosing range all, in M): 9.67E-07; EC10, linear ([2]; Bioassay ERα, dosing range all, linear model fit, in M): 1.45E-06; Efficacy % [2]: 60.05%; EC10 ([2]; in M): 9.95E-07; REPBPA [2]: 3.72E-01; Emax%ERα ([2]; maximum efficacy relative to E2): 60%"
"CC(C)(c1ccc(O)c(-c2ccccc2)c1)c1ccc(O)c(-c2ccccc2)c1 [BPPH, 2,2-Bis(2-hydroxy-5-biphenylyl)propane]",–,–,did not activate ERα at noncytotoxic concentrations,–,–,0%,no effect,no effect,22%,0.78,89.82%,0.90,66.60%,0.67,"% Loss ([3]; Table S11): 22%; Cparent-Ratio Mean [3, 17]: 0.78; Cparent-Ratio Rep.1 [3, 17]: 0.78; Cparent-Ratio Rep.2 [3, 17]: 0.78"
"O=S(=O)(c1ccc(O)cc1)c1ccc(O)cc1 [BPS, 4,4'-Sulfonyldiphenol]",1.65E-06,1.43 × 10^–6 M,–,1.43 µM,0.75,66%,–,–,–,–,–,–,–,–,"EC10, after oxidation ([1]; Table S10): 1.48E-06; TKERα ([1]; Table S10): 1.115; EC10, linear transformed [2, 10]: 1.15E-06; EC10, linear [2, 11]: 1.20E-06; logEC10 [2, 12]: -5.97; EC10, linear transformed ([2]; ERα bioassay, dosing range low, in M): 1.65E-06; EC10, linear ([2]; ERα bioassay, dosing range low, linear model, in M): 1.43E-06; logEC10 ([2]; ERα bioassay, dosing range low, log-logistic model): -5.76; Efficacy % [2]: 65.69%; EC10 ([2]; in M): 1.43E-06; REPBPA [2]: 2.59E-01"
"O=S(=O)(c1ccc(O)cc1)c1ccc(OCc2ccccc2)cc1 [BPS-MPE, 4-[4-(benzyloxy)benzenesulfonyl]phenol]",–,–,did not activate ERα at noncytotoxic concentrations,–,–,–,no effect,no effect,0.295%,1.00,118.51%,1.19,80.90%,0.81,–
"Oc1ccc(C2(c3ccc(O)cc3)CCCCC2)cc1 [BPZ, 1,1'-Bis(4-hydroxyphenyl)cyclohexane]",–,–,–,–,–,–,–,–,12%,–,–,–,–,–,–
"Cc1ccc(S(=O)(=O)NC(=O)Nc2cccc(OS(=O)(=O)c3ccc(C)cc3)c2)cc1 [Pergafast, N-(p-toluenesulfonyl)-N'-(3-(p-toluenesulfonyloxy)phenyl)urea]",–,–,did not activate ERα at noncytotoxic concentrations,–,–,–,no effect,no effect,44%,0.56,66.98%,0.67,45.82%,0.46,"reduction of C parent after aCYP oxidation ([3]; 15 min, 30 °C): 44%; % Loss ([3]; Table S11): 32%; Cparent-Ratio Mean [3, 17]: 0.68; Cparent-Ratio Rep.1 [3, 17]: 0.75; Cparent-Ratio Rep.2 [3, 17]: 0.61"
"CC(C)(c1cc(Br)c(O)c(Br)c1)c1cc(Br)c(O)c(Br)c1 [TBBPA, 3,3',5,5'-Tetrabromobisphenol A]",–,–,–,–,–,–,–,–,8%,–,–,–,–,–,–
"Cc1cc(Cc2cc(C)c(O)c(C)c2)cc(C)c1O [TMBPF, Bis(3,5-dimethyl-4-hydroxyphenyl)methane]",–,–,did not activate ERα at noncytotoxic concentrations,–,–,–,no effect,no effect,31%,0.69,58.94%,0.59,79.26%,0.79,"Emax ([2]; read-out: Emax%ERα): 0%; % Loss ([3]; Table S11): 56%; Cparent-Ratio Mean [3, 17]: 0.44; Cparent-Ratio Rep.1 [3, 17]: 0.29; Cparent-Ratio Rep.2 [3, 17]: 0.59"
CC1(C)[C@H](O)C(C)(C)[C@H]1O [Trans TMCD],–,–,–,–,–,–,–,–,–,–,–,–,–,–,"EC10, linear transformed [2, 4]: 3.18E-03; EC10, linear [2, 5]: 3.03E-03; logEC10 [2, 6]: -2.47"
